Measured values taken from patent US20120129892A1, “NOVEL PHARMACEUTICALLY ACCEPTABLE SALTS OF 4-(1H-IMIDAZOL-4-[…])PYRIDINE AND THEIR THERAPEUTICAL USES” (BIOPROJET, priority 2009, published 2012).
Structures can show the parent of a compound that is named as a salt. Where two headings read alike, the source gives them in different places.

How the values were obtained:
[1] = sleep EEG recording in rats (24-hr recordings); assay type: in vivo; settings: for tolerance to sleep-promoting / hypnotic effect: repeated o.d. administration over several days
Text: While the sleep-promoting activity of several other H3R agonists has been previously described (Lin et al., Brain Res., 1990, 523, 325-330; Monti et al., Neuropsychopharmacology, 1996, 15, 31-35), much higher dosages—by two to three orders of magnitude—were required to obtain this effect.
This is in contrast with the long-lasting disorders of circadian rhythms, namely the relative insomnia, which occur at the interruption of a repeated treatment with benzodiazepines or imidazopyridines such as Zolpidem.

[2] = stability on heating at 80° C. during one week, HPLC analysis
[3] = biological target: recombinant human cytochrome P450 3A4 (Homo sapiens, UniProt P08684); test: inhibition of recombinant human cytochrome P450 3A4; assay type: in vitro ADME; settings: read-out: IC50 at 3A4 isoform
Chain of recombinant human cytochrome P450 3A4 (P08684 whole entry, canonical isoform): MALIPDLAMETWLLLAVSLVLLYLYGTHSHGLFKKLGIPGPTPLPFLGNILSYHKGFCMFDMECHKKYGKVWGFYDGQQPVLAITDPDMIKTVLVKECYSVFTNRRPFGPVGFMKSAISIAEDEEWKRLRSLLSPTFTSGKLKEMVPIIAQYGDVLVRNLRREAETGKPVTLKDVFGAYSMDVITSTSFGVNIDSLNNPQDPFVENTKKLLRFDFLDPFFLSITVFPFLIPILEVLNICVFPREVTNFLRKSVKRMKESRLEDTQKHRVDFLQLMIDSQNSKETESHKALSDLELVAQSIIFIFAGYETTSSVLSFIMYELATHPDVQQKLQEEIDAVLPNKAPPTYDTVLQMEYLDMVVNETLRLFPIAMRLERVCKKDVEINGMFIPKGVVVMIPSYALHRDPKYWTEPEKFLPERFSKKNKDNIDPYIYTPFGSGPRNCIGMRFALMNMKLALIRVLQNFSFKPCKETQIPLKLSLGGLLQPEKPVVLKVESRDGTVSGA
Text: (§1) These values are over 3 orders of magnitude higher than the expected plasma or tissue concentrations at therapeutic dosage.

[4] = general tolerance in rodents; assay type: in vivo; settings: doses as high as 100 mg/kg
Description: (§2) Accordingly, rats treated orally for 18 days by 20 mg/kg o.d.

H3R in brain [5] = biological target: H3R in brain (Mus musculus, UniProt P58406); settings: mice, oral, immethridine base and salts at 0.3 mg/kg, imetit: maximal reduction
Chain of H3R in brain (Mus musculus, UniProt P58406) (P58406 whole entry): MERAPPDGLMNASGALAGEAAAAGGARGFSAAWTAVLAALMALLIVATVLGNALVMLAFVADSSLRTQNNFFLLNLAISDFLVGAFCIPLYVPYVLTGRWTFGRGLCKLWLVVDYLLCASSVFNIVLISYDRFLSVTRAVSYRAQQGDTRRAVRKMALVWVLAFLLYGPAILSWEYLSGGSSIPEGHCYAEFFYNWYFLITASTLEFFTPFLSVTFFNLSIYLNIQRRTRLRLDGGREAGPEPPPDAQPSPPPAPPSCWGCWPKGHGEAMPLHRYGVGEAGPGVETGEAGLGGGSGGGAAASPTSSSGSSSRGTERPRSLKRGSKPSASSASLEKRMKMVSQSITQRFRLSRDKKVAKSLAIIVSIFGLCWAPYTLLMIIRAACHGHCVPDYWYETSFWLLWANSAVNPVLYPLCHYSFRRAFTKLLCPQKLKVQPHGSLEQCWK

H3R = biological target: T1, H3R (Rattus norvegicus, UniProt Q9QYN8); settings: rats, intraperitoneal, doses as high as 10 mg/kg necessary (Celanire et al.); cited from earlier work
T1 construct: host or cells: living rats (brain)
T1 sequence (Q9QYN8 whole entry): as the sequence (P58406 whole entry) above, with A15T, T286A, G290A, H387R, V389I counted along it

[6] = biological target: recombinant human cytochrome P450 2D6 (Homo sapiens, UniProt P10635); test: inhibition of recombinant human cytochrome P450 2D6; assay type: in vitro ADME; settings: read-out: IC50 at 2D6 isoform
Chain of recombinant human cytochrome P450 2D6 (P10635 whole entry, canonical isoform): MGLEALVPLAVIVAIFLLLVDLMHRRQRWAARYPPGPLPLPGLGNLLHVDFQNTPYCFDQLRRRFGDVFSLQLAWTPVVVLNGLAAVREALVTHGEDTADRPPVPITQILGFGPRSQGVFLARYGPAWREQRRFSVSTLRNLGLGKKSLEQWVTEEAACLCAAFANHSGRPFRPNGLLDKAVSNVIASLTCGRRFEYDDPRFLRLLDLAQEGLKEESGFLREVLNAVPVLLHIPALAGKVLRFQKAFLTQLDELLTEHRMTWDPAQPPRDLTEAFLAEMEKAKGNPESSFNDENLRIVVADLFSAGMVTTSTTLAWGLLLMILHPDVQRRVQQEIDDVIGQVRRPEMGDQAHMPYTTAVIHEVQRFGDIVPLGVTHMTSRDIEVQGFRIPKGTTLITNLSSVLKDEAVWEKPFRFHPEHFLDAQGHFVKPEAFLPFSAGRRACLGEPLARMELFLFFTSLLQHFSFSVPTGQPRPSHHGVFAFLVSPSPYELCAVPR
Text: as §1

recombinant hH3R = biological target: T2, recombinant hH3R (Homo sapiens, UniProt Q9Y5N1); test: [35S]GTPγS binding activation on recombinant hH3R expressed in HEK 293 cells; assay type: biochemical
T2 construct: expressed in transfected cells; host or cells: HEK 293 cells
T2 sequence (Q9Y5N1 whole entry): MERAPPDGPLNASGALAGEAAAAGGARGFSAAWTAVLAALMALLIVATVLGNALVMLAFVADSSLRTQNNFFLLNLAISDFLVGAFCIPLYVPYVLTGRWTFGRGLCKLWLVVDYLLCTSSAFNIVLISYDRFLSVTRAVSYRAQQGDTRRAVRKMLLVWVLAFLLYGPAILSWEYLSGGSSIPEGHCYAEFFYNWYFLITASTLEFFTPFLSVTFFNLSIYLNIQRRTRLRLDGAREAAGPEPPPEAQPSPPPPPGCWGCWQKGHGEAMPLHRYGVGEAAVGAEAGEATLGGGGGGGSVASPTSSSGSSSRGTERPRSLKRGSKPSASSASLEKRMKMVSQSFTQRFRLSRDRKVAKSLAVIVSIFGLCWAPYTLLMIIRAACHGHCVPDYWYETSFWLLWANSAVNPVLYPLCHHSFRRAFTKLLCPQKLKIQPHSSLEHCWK

[7] = AUCs of unchanged drug and metabolite in rat brain and blood; settings: Sprague-Dawley, po, 1 mg/kg
[8] = AUCs of unchanged drug and tele methylated derivative in mouse brain and blood; assay type: in vivo; settings: 1 mg/kg, p.o.
hERG potassium channel [9] = biological target: T3, hERG potassium channel (Homo sapiens, UniProt Q12809); test: [3H]dofetidide binding assay, HEK-293 cells stably expressing hERG; settings: concentrations up to 10 μM
T3 sequence (Q12809 whole entry): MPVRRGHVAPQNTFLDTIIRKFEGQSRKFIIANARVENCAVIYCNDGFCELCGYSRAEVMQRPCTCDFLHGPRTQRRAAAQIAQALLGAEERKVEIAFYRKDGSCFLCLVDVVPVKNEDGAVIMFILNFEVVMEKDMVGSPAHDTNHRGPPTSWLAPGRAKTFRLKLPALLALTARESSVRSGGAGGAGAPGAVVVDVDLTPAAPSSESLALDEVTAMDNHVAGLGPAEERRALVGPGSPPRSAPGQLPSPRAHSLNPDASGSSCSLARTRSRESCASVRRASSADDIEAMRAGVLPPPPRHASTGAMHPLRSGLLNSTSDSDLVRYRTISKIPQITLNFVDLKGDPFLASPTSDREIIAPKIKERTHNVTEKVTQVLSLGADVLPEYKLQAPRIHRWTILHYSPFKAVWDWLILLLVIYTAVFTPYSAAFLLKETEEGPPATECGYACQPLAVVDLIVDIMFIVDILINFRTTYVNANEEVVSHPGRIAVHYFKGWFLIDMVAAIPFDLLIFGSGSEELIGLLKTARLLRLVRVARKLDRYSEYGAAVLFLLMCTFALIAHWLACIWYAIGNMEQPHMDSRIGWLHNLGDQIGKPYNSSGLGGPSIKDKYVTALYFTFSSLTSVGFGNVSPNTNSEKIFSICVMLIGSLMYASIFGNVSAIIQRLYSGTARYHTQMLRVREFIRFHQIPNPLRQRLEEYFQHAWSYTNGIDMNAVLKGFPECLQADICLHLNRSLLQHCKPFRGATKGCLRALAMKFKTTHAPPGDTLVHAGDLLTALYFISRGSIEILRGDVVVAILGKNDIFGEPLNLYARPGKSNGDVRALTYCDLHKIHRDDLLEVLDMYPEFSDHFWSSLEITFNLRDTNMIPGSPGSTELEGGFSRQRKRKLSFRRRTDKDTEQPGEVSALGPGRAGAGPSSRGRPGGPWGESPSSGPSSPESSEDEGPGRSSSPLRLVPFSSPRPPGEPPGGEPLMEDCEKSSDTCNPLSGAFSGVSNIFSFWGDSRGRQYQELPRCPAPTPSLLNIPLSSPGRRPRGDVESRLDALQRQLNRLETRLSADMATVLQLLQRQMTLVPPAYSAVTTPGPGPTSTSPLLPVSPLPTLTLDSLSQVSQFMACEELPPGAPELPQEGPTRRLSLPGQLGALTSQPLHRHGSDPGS

hERG potassium channel [10] = biological target: T3, hERG potassium channel; test: potassium hERG current, functional patch clamp assay in HEK-293 cells; settings: concentrations up to 10 μM
[11] = system: human CYP 450 isoforms (3A4, 2C9, 2E1, 2B6) and UGTs; test: induction of CYP 450 isoforms and UGTs in human hepatocytes; assay type: in vitro ADME; settings: concentrations over 3 orders of magnitude higher than expected therapeutic concentrations
[12] = biological target: recombinant human cytochrome P450 2C9 (Homo sapiens, UniProt P11712); test: inhibition of recombinant human cytochrome P450 2C9; assay type: in vitro ADME; settings: read-out: IC50 at 2C9 isoform
Chain of recombinant human cytochrome P450 2C9 (P11712 whole entry, canonical isoform): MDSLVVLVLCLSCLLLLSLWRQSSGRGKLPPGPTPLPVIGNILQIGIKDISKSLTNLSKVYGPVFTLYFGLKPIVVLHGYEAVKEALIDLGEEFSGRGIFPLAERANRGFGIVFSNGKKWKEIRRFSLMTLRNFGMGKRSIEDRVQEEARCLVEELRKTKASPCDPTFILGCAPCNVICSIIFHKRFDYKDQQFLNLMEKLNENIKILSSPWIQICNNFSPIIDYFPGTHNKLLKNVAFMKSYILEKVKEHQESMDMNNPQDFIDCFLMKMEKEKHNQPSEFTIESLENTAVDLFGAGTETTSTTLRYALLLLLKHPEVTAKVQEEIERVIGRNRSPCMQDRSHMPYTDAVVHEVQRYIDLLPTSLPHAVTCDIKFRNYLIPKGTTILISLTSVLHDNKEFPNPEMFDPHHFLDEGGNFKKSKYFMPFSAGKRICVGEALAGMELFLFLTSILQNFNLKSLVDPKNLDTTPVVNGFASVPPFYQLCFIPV
Text: as §1

human H3R = human H3R (Homo sapiens, UniProt Q9Y5N1); test: β arrestin translocation; assay type: cell-based
Chain of human H3R (Q9Y5N1 whole entry): as the sequence (Q9Y5N1 whole entry) above

H3R in brain [13] = test: reduction of brain tele methylhistamine levels after oral dosing (ED50)
[14] = withdrawal symptoms after interruption of repeated Zolpidem treatment in rats; assay type: in vivo; settings: 18 days 20 mg/kg o.d. oral Zolpidem followed by 0.3 mg/kg, p.o.
Description: as §2

human HMT = human HMT (Homo sapiens, UniProt P50135); test: tele-methylation by HMT, cytosol of fresh human hepatocytes, Lineweaver-Burk analysis; settings: pH 7.4, 20 μM (S)-adenosyl methionine
Chain of human HMT (P50135 whole entry): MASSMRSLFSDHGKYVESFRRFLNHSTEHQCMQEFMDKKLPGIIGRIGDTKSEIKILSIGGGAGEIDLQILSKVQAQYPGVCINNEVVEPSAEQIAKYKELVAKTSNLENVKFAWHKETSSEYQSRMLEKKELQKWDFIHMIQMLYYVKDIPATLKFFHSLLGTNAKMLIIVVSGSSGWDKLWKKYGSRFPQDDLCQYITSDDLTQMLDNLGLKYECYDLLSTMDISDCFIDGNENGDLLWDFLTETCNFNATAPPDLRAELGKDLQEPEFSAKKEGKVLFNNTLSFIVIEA

[15] = hygroscopy: water uptake in a water-saturated atmosphere at room temperature; assay type: physicochemical; settings: a few days in water-saturated atmosphere at room temperature, listed as immethridine dioxalate

Structure (SMILES): Cc1ccc(-c2nc3ccc(C)cn3c2CC(=O)N(C)C)cc1 [Zolpidem, reference compound]
- withdrawal symptoms upon interruption of repeated treatment ([1]; after interruption of 15-day treatment with 20 mg/kg, p.o.): increases in sleep onset latency, decrease in deep sleep
- tolerance to sleep-promoting / hypnotic effect [1]: rapid development of tolerance

Structure (SMILES): c1cc(Cc2cnc[nH]2)ccn1 [BP1.5375, 4-(1H-imidazol-4-yl-methyl)-pyridine]
- stability when heated ([2]; listed as immethridine): darkens
- IC50 [3]: 29.3 µM
- apparent toxicity sign [4]: does not induce any apparent toxicity sign
- t-methylhistamine brain level variation vs. control, mean (%) (H3R in brain [5]; 0.3 mg/kg): −42.1%
- decrease of histamine in brain (H3R): modestly decrease histamine in brain
- rebound / sleep pattern upon interruption of repeated treatment ([1]; after interruption of 6-day treatment with 0.3 mg/kg, p.o.): does not give rise to a rebound phenomenon
- tolerance to sleep-promoting / hypnotic effect [1]: does not diminish
- duration of deep SWS (slow wave sleep) period ([1]; same very low dosages, administered 30 min before start of light-on period): enhanced significantly
- IC50 [6]: ≥ 100 µM
- EC50 (recombinant hH3R): ~0.001 µM
- intrinsic activity compared with histamine (recombinant hH3R; [35S]GTPγS binding, hH3R): 0.75
- Kp [7]: 2.6
- ratio of brain/blood AUCs [8]: close to unit
- inhibition of [3H]dofetidide binding (hERG potassium channel [9]): not to inhibit
- inhibition of potassium hERG current (hERG potassium channel [10]): not to inhibit
- induction of CYP 450 isoforms (3A4, 2C9, 2E1, 2B6) and UGTs [11]: not induced
- IC50 [12]: 3.1 µM
- EC50 (human H3R): ~0.017 µM
- intrinsic activity compared to histamine (human H3R; β arrestin translocation): 0.5
- ED50, reduction of levels of tele methylhistamine in brain (H3R in brain [13]; given orally to rats or mice): ~30 micrograms/kg
- tele methylhistamine response upon repeated administration (H3R in brain [13]; repeated administration over 7 days): maintained
- occurrence of withdrawal symptoms after Zolpidem interruption [14]: prevents the occurrence of withdrawal symptoms

Structure (SMILES): c1cc(Cc2c[nH]cn2)ccn1 [BP1.5375 (dibromhydrate salt)]
- Vm (human HMT): 0.004 µM/min

Structure (SMILES): CS(=O)(=O)O.CS(=O)(=O)O.c1cc(Cc2c[nH]cn2)ccn1 [Immethridine methane sulfonate]
- t-methylhistamine brain level variation vs. control, mean (%) (H3R in brain [5]): −40.0%

Structure (SMILES): c1cc(Cc2c[nH]cn2)ccn1 [BP1.5375 (alpha keto-glutarate salt)]
- t-methylhistamine brain level variation vs. control, mean (%) (H3R in brain [5]; listed as Immethridine alpha-ketoglutarate, 0.3 mg/kg): −46.1%

Structure (SMILES): c1cc(Cc2cnc[nH]2)ccn1 [BP1.5375 (dioxalate salt), 4-(1H-imidazol-4-ylmethyl)-pyridine dioxalate]
- stability when heated ([2]; listed as immethridine dioxalate, dioxalate): no apparent degradation
- water uptake, % of weight [15]: 13-15%

Structure (SMILES): c1cc(Cc2cnc[nH]2)ccn1 [Immethridine dihydrochloride]
- t-methylhistamine brain level variation vs. control, mean (%) (H3R in brain [5]): −37.0%

Structure (SMILES): c1cc(Cc2c[nH]cn2)ccn1 [BP1.5375 (ditoluenesulfonate salt)]
- t-methylhistamine brain level variation vs. control, mean (%) (H3R in brain [5]; listed as Immethridine di p-toluene sulfonate, 0.3 mg/kg): −41.6%
- Vm (human HMT): 0.004 µM/min
